Patent US20180353457A1, “ABIETANE DITERPENOID 7-ACETOXYROYLEANONES FOR USE IN CANCER TREATMENT” (University of South Carolina, priority 2017, published 2018)

Columns and labels:
[1] = test system: A2780ADR (doxorubicin resistant subclone of ovarian carcinoma A2780) cells; assay: MTS cytotoxicity assay, A2780ADR; assay type: cell-based; conditions: 48 and 72 hours of exposure
From the text: (§1) Human cell lines used included MG-63 (osteosarcoma), SK-OV-3 (ovarian adenocarcinoma), MDA-MB-231 (breast adenocarcinoma derived from a metastatic site), HCT 116 (colorectal carcinoma), HCT 116/200 (an FdUrd resistant subclone of HCT 116 cells), and A2780ADR (a doxorubicin resistant subclone of the ovarian carcinoma A2780). All cells were stored in liquid nitrogen until use. MG-63, SK-OV-3, MDA-MB-231, and HCT 116 cell lines were all obtained from ATCC. A2780ADR cells were obtained from Sigma-Aldrich. HCT 116/200 cells were obtained from Dr. Franklin G. Berger from the Center for Colon Cancer Research. MG-63 cells were maintained in MEM medium (Corning) supplemented with 10% Fetal Bovine Essence (VWR) and 1% penicillin/streptomycin solution (Corning). SK-OV-3 cells were maintained in McCoy's 5A Medium (Sigma) supplemented with Fetal Bovine Essence and 1% penicillin/streptomycin. […]
(§2) Cells were first grown to approximately 80% confluency within […] tissue culture flasks (VWR). […] Cells were counted using a hemocytometer and their viability was confirmed using trypan blue (Gibco). […]
(§3) In combination studies, 7-acetoxyroyleanone and FdUrd were first mixed into the same media and then added to the cells. […] The cells were incubated for 2 hours, and the absorbance of each well at 490 nm was measured using a Spectramax 190 microplate reader.

[2] = test system: HCT 116 (colorectal carcinoma) cells; assay: MTS cytotoxicity assay, HCT 116; assay type: cell-based; conditions: HCT 116 cells
From the text: as §1, §2, §3

[3] = read-out: LC50; melanoma cell line SK-OV-3 (so in the source), most sensitive to cell death
[4] = test system: MG-63 (osteosarcoma) cells; assay: MTS cytotoxicity assay, MG-63; assay type: cell-based; conditions: MG-63 cells, 48 and 72 hours of exposure
From the text: as §1, §2, §3

CC(=O)O[C@@H]1C[C@H]2C(C)(C)CCC[C@]2(C)C2=C1C(=O)C(C(C)C)=C(O)C2=O [7-acetoxyroyleanone]
cytotoxicity (percent viability) [1]: significant cytotoxic properties
cell death at the lowest concentration tested ([2]; 1 μg/mL): cell death was indicated
cytotoxicity (percent viability) ([2]; 48 and 72 hours of exposure, MTS): significant cytotoxic properties
CC50 [3]: 4.34 µM
cytotoxicity (percent viability) [4]: significant cytotoxic properties
